Assay results taken from patent US10227331B2 (priority 2015, dated 2019).

What was measured:
IMP-1 = IMP-1 (Serratia marcescens, UniProt P52699); assay: biochemical; format: biochemical; conditions: CCF2-FA substrate, 2 hours at 25° C; read-out: IMP-1 IC50
Outline: (§1)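 Fluorescence assay, CCF2-FA substrate (cephalosporin core linking 7-hydroxycoumarin to fluorescein); inhibitor + MBL + substrate, 2 h, 25° C. IC50 by 4-parameter fit, semi-log plot.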

NDM-1 = NDM-1 (Klebsiella pneumoniae, UniProt C7C422); assay: biochemical; format: biochemical; conditions: CCF2-FA substrate, 2 hours at 25° C; read-out: NDM-1 IC50
Outline: as §1

[1] = system: P. aeruginosa expressing IMP-1, efflux+ (MB9798); format: cell-based, Pseudomonas aeruginosa; conditions: for P. aeruginosa expressing IMP-1, efflux+ (MB9798) MITC95: imipenem at 2 μg/mL, in the presence of a class A, C, D serine β-lactamase inhibitor closely related to relebactam; for Efflux ratio: ratio MITC95 PA_9798/MITC95 PA_9799
Excerpt: (§2) The strain background is Pseudomonas aeruginosa PAO1.

VIM-1 = VIM-1 (Pseudomonas aeruginosa (strain ATCC 15692 / DSM 22644 / CIP 104116 / JCM 14847 / LMG 12228 / 1C / PRS 101 / PAO1), UniProt A0A0F7KYQ8); assay: biochemical; conditions: CCF2-FA substrate, 2 hours at 25° C
Outline: as §1

[2] = system: P. aeruginosa expressing IMP-1, efflux− (MB9799); assay: Efflux: concentration of MBL inhibitor which restores susceptibility to imipenem; format: cell-based, Pseudomonas aeruginosa; conditions: imipenem at 2 μg/mL, in the presence of a class A, C, D serine β-lactamase inhibitor closely related to relebactam
Excerpt: as §2

[3] = system: Klebsiella pneumoniae expressing VIM-1 (IHMA599644); format: cell-based; conditions: with imipenem 1 μg/ml, 95% inhibition of bacterial growth; for Klebsiella pneumoniae MITC95: VIM-1 (IHMA599644)
Outline: (§3)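 Colonies from overnight 35 °C blood-agar cultures were suspended in saline, diluted 1:100 into 1.1× CAMHB and exposed to test compound with or without imipenem at 1 μg/ml. After 22–24 h at 35 °C, absorbance was read to find the concentration restoring imipenem susceptibility.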

[4] = system: Escherichia coli expressing NDM-1 (CLB30005, CLB30016); format: cell-based; conditions: with imipenem 1 μg/ml, 95% inhibition of bacterial growth; for Escherichia coli MITC95: NDM-1 (CLB30016)
Outline: as §3

[5] = system: Serratia marcescens expressing IMP-1 (CL5741); format: cell-based; conditions: with imipenem 1 μg/ml, 95% inhibition of bacterial growth; for Serratia marcescens MITC95: IMP-1 (CL5741)
Outline: as §3

Chain of IMP-1 (P52699 whole entry, looked up, species assumed): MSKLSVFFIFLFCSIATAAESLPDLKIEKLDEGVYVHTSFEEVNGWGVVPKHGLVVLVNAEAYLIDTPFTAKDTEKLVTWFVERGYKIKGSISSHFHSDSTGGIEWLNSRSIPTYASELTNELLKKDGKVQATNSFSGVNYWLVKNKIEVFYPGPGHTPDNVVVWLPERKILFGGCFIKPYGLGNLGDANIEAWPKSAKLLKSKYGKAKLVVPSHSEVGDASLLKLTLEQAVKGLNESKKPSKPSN
Chain of NDM-1 (C7C422 whole entry, looked up, species assumed): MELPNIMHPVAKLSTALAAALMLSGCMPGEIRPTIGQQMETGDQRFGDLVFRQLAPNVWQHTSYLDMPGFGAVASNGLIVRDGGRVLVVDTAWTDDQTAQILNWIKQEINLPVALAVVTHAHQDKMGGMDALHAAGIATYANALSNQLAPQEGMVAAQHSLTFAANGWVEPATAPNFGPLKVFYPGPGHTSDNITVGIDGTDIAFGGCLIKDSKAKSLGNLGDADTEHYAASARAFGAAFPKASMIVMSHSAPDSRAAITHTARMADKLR

Compound: NC1CCC(c2ccc(S(=O)(=O)C3CCNCC3)c(S(N)(=O)=O)c2-c2nnn[nH]2)CC1 (stereo not drawn) [Example 206, 3-(4-aminocyclohexyl)-6-(piperidin-4-ylsulfonyl)-2-(1H-tetrazol-5-yl) benzenesulfonamide]
- IC50 (IMP-1): 23.5 nM
- IC50 (NDM-1): 20.3 nM
- P. aeruginosa expressing IMP-1, efflux+ (MB9798) MITC95 [1]: 3.125 µM
- Efflux ratio [1]: 2.00
- IC50 (VIM-1): 0.857 nM
- P. aeruginosa expressing IMP-1, efflux− (MB9799) MITC95 [2]: 1.563 µM
- Klebsiella pneumoniae expressing VIM-1 (IHMA599644) MITC95 [3]: 3.125 µM
- Escherichia coli expressing NDM-1 (CLB30016) MITC95 [4]: 6.25 µM
- Serratia marcescens expressing IMP-1 (CL5741) MITC95 [5]: 3.125 µM

Compound: Nc1nc2c(-c3ccc(S(=O)(=O)[C@H]4C[C@@H](N)C4)c(S(N)(=O)=O)c3-c3nn[nH]n3)cccc2s1 [Example 180, 3-(2-aminobenzo[d]thiazol-4-yl)-6-((1s,3s)-3-aminocyclobutylsulfonyl)-2-(2H-tetrazol-5-yl)benzenesulfonamide]
- IC50 (IMP-1): 0.26 nM
- IC50 (NDM-1): 0.0833 nM
- P. aeruginosa expressing IMP-1, efflux+ (MB9798) MITC95 [1]: 0.7813 µM
- Efflux ratio [1]: 1.00
- IC50 (VIM-1): 0.196 nM
- P. aeruginosa expressing IMP-1, efflux− (MB9799) MITC95 [2]: 0.7813 µM
- Klebsiella pneumoniae expressing VIM-1 (IHMA599644) MITC95 [3]: 3.125 µM
- Escherichia coli expressing NDM-1 (CLB30016) MITC95 [4]: 3.125 µM
- Serratia marcescens expressing IMP-1 (CL5741) MITC95 [5]: 1.563 µM

Compound: Cc1ccc(-c2ccc(S(=O)(=O)[C@H]3CCNC3)c(S(N)(=O)=O)c2-c2nn[nH]n2)c2nc(N)sc12 [Example 188, 3-(2-amino-7-methylbenzo[d]thiazol-4-yl)-6-((S)-pyrrolidin-3-ylsulfonyl)-2-(2H-tetrazol-5-yl)benzenesulfonamide]
- IC50 (IMP-1): 0.109 nM
- IC50 (NDM-1): 0.0435 nM
- P. aeruginosa expressing IMP-1, efflux+ (MB9798) MITC95 [1]: 1.563 µM
- Efflux ratio [1]: 2.00
- IC50 (VIM-1): 0.113 nM
- P. aeruginosa expressing IMP-1, efflux− (MB9799) MITC95 [2]: 0.7813 µM
- Klebsiella pneumoniae expressing VIM-1 (IHMA599644) MITC95 [3]: 1.563 µM
- Escherichia coli expressing NDM-1 (CLB30016) MITC95 [4]: 1.563 µM
- Serratia marcescens expressing IMP-1 (CL5741) MITC95 [5]: 0.7813 µM

Compound: Nc1ncccc1-c1cc(-c2ccc(S(=O)(=O)C3CNC3)c(S(N)(=O)=O)c2-c2nnn[nH]2)ccn1 [Example 310, 3-(2′-Amino-[2,3′-bipyridin]-4-yl)-6-(azetidin-3-ylsulfonyl)-2-(1H-tetrazol-5-yl)benzenesulfonamide]
- IC50 (IMP-1): 2.3 nM
- IC50 (NDM-1): 1.04 nM
- P. aeruginosa expressing IMP-1, efflux+ (MB9798) MITC95 [1]: 25 µM
- Efflux ratio [1]: 15.99
- IC50 (VIM-1): 0.319 nM
- P. aeruginosa expressing IMP-1, efflux− (MB9799) MITC95 [2]: 1.563 µM
- Klebsiella pneumoniae MITC95 [3]: 3.125 µM
- Escherichia coli MITC95 [4]: 1.563 µM
- Serratia marcescens MITC95 [5]: 1.563 µM

Compound: NCCS(=O)(=O)c1ccc(-c2cccc3sc(C(N)=O)nc23)c(-c2nn[nH]n2)c1S(N)(=O)=O [Example 89, 4-(4-(2-aminoethylsulfonyl)-3-sulfamoyl-2-(2H-tetrazol-5-yl)phenyl)benzo[d]thiazole-2-carboxamide]
- IC50 (IMP-1): 0.601 nM
- IC50 (NDM-1): 0.277 nM
- P. aeruginosa expressing IMP-1, efflux+ (MB9798) MITC95 [1]: 3.125 µM
- Efflux ratio [1]: 2.00
- IC50 (VIM-1): 0.152 nM
- P. aeruginosa expressing IMP-1, efflux− (MB9799) MITC95 [2]: 1.563 µM
- Klebsiella pneumoniae expressing VIM-1 (IHMA599644) MITC95 [3]: 3.125 µM
- Escherichia coli expressing NDM-1 (CLB30016) MITC95 [4]: 1.563 µM
- Serratia marcescens expressing IMP-1 (CL5741) MITC95 [5]: 1.563 µM

Compound: Nc1nc2cccc(-c3ccc(S(=O)(=O)C4CNC4)c(S(N)(=O)=O)c3-c3nn[nH]n3)c2s1 [Example 26, 3-(2-aminobenzo[d]thiazol-7-yl)-6-(azetidin-3-ylsulfonyl)-2-(2H-tetrazol-5-yl)benzenesulfonamide]
- IC50 (IMP-1): 0.66 nM
- IC50 (NDM-1): 0.0286 nM
- P. aeruginosa expressing IMP-1, efflux+ (MB9798) MITC95 [1]: 3.125 µM
- Efflux ratio [1]: 2.00
- IC50 (VIM-1): 0.16 nM
- P. aeruginosa expressing IMP-1, efflux− (MB9799) MITC95 [2]: 1.563 µM
- Klebsiella pneumoniae expressing VIM-1 (IHMA599644) MITC95 [3]: 3.125 µM
- Escherichia coli expressing NDM-1 (CLB30016) MITC95 [4]: 1.563 µM
- Serratia marcescens expressing IMP-1 (CL5741) MITC95 [5]: 3.125 µM

Compound: NCCNC(=O)c1cccc(-c2ccc(S(=O)(=O)C3CNC3)c(S(N)(=O)=O)c2-c2nn[nH]n2)c1N [Example 288, 2-amino-N-(2-aminoethyl)-4′-(azetidin-3-ylsulfonyl)-5′-sulfamoyl-6′-(2H-tetrazol-5-yl)biphenyl-3-carboxamide]
- IC50 (IMP-1): 9.83 nM
- IC50 (NDM-1): 1.67 nM
- P. aeruginosa expressing IMP-1, efflux+ (MB9798) MITC95 [1]: 3.125 µM
- Efflux ratio [1]: 4.00
- IC50 (VIM-1): 0.861 nM
- P. aeruginosa expressing IMP-1, efflux− (MB9799) MITC95 [2]: 0.7813 µM
- Klebsiella pneumoniae MITC95 [3]: 1.563 µM
- Escherichia coli MITC95 [4]: 3.125 µM
- Serratia marcescens MITC95 [5]: 3.125 µM

Compound: NCCS(=O)(=O)c1ccc(-c2ccc3c(c2)CC(=O)N3)c(-c2nnn[nH]2)c1S(N)(=O)=O.O=C(O)C(F)(F)F [Example 157, 2-((4-(2-oxoindolin-5-yl)-2-sulfamoyl-3-(1H-tetrazol-5-yl)phenyl)sulfonyl)ethanaminium 2,2,2-trifluoroacetate]
- IC50 (IMP-1): 1.89 nM
- IC50 (NDM-1): 1.94 nM
- P. aeruginosa expressing IMP-1, efflux+ (MB9798) MITC95 [1]: 12.5 µM
- Efflux ratio [1]: 16.00
- IC50 (VIM-1): 0.295 nM
- P. aeruginosa expressing IMP-1, efflux− (MB9799) MITC95 [2]: 0.7813 µM
- Klebsiella pneumoniae expressing VIM-1 (IHMA599644) MITC95 [3]: 3.125 µM
- Escherichia coli expressing NDM-1 (CLB30016) MITC95 [4]: 1.563 µM
- Serratia marcescens expressing IMP-1 (CL5741) MITC95 [5]: 1.563 µM

Compound: Nc1nc2c(-c3ccc(S(=O)(=O)[C@@H]4CN[C@H](CO)C4)c(S(N)(=O)=O)c3-c3nn[nH]n3)cccc2[nH]1 [Example 350, 3-(2-Amino-1H-benzo[d]imidazol-4-yl)-6-(((3S,5S)-5-(hydroxymethyl)pyrrolidin-3-yl)sulfonyl)-2-(2H-tetrazol-5-yl)benzenesulfonamide]
- IC50 (IMP-1): 0.982 nM
- IC50 (NDM-1): 0.25 nM
- P. aeruginosa expressing IMP-1, efflux+ (MB9798) MITC95 [1]: 1.563 µM
- Efflux ratio [1]: 1.00
- IC50 (VIM-1): 0.674 nM
- P. aeruginosa expressing IMP-1, efflux− (MB9799) MITC95 [2]: 1.563 µM
- Klebsiella pneumoniae MITC95 [3]: 3.125 µM
- Escherichia coli MITC95 [4]: 0.7813 µM
- Serratia marcescens MITC95 [5]: 1.563 µM

Compound: Cl.Cl.NCCCS(=O)(=O)c1ccc(-c2cccc3[nH]c(N)nc23)c(-c2nn[nH]n2)c1S(N)(=O)=O [Example 270, 3-(2-amino-1H-benzo[d]imidazol-4-yl)-6-(3-aminopropylsulfonyl)-2-(2H-tetrazol-5-yl)benzenesulfonamide dihydrochloride]
- IC50 (IMP-1): 0.625 nM
- IC50 (NDM-1): 0.143 nM
- P. aeruginosa expressing IMP-1, efflux+ (MB9798) MITC95 [1]: 0.4453 µM
- Efflux ratio [1]: 1.00
- IC50 (VIM-1): 0.228 nM
- P. aeruginosa expressing IMP-1, efflux− (MB9799) MITC95 [2]: 0.4453 µM
- Klebsiella pneumoniae MITC95 [3]: 0.8906 µM
- Escherichia coli MITC95 [4]: 0.125 µM
- Serratia marcescens MITC95 [5]: 0.6406 µM

Compound: Nc1nc2cc(F)cc(-c3ccc(S(=O)(=O)C4CNC4)c(S(N)(=O)=O)c3-c3nnn[nH]3)c2[nH]1 [Example 262, 3-(2-amino-5-fluoro-1H-benzo[d]imidazol-7-yl)-6-(azetidin-3-ylsulfonyl)-2-(1H-tetrazol-5-yl) benzenesulfonamide]
- IC50 (IMP-1): 0.506 nM
- IC50 (NDM-1): 0.0803 nM
- P. aeruginosa expressing IMP-1, efflux+ (MB9798) MITC95 [1]: 0.7813 µM
- Efflux ratio [1]: 1.00
- IC50 (VIM-1): 0.322 nM
- P. aeruginosa expressing IMP-1, efflux− (MB9799) MITC95 [2]: 0.7813 µM
- Klebsiella pneumoniae MITC95 [3]: 3.125 µM
- Escherichia coli MITC95 [4]: 0.7813 µM
- Serratia marcescens MITC95 [5]: 1.563 µM
